Key:
Type in all cases: cell-based
Conditions in all cases: compounds at 50 nM and 500 nM
[1] = biological target: T1, IKZF3 (Homo sapiens, UniProt Q96SW2+Q9UKT9); test: Western blot degradation of IKZF3 in hPBMCs (24 h)
T1 construct: The supernatant was aspirated as the extracted total cell protein; endogenous in cells; host or cells: human peripheral blood mononuclear cells (hPBMCs)
Method: (§1) Conventional Western blot assay was performed to evaluate the effects of the compounds of the present disclosure on the expression of target proteins in cells. • (1) Cell Seeding and Protein Harvesting: Human peripheral blood mononuclear cells (hPBMCs) at a density of 1×10^6 cells/mL were thawed according to the PBMC Recovery Protocol (Milecell Biotechnologies Inc, Shanghai). The cells were then treated with the compounds of the present disclosure (including the compounds listed in Table 1, and the Examples 1-498 compounds) at concentrations of 50 nM and 500 nM. Controls included a negative control (DMSO) and a positive control (the commercial immunomodulatory drug lenalidomide), both processed following the identical experimental protocol as the compounds of the present disclosure. After 24 hours of compounds treatment, cells were harvested and lysed in RIPA protein lysate containing protease inhibitors on ice for 30 min, followed by centrifugation. The supernatant was aspirated as the extracted total cell protein. The protein concentration of the supernatant was determined using the conventional BCA (Bicinchoninic Acid) assay. • (2) To the collected supernatant, 5×SDS sample loading buffer was added, followed by denaturation at 95 °C for 5 minutes. The denatured samples were then separated by SDS-PAGE electrophoresis on a polyacrylamide gel. Proteins were transferred to a nitrocellulose membrane (0.45 μm NC membrane), blocked with blocking buffer at room temperature for 1 hour, and subjected to antibody incubation and development procedures according to the antibody manufacturer's instructions (Cell Signaling Technology).
(§2) Half-Maximal Degradation Concentration value (the drug concentration required for degrading proteins by 50%, abbreviated as DC50) reads method: comparing the grayscale values of Western blot bands from drug-treated samples with those from blank DMSO-treated controls, and identifying the drug concentration range at which the grayscale value is half that of the DMSO-treated control bands.
(§3) DC50 values can be calculated using ImageJ software to measure grayscale values of Western blot bands from drug-treated samples. The concentration-response curve is fitted to estimate the drug concentration corresponding to half the grayscale value.
(§4) Target protein remaining (%) refers to the percentage of target protein remaining in cells after treatment with protein degrader compounds.
(§5) Calculation method for target protein remaining (%): Use ImageJ software to measure grayscale values of Western blot bands from drug (protein degrader)-treated samples. The grayscale value of drug-treated bands is divided by that of internal control protein bands, and the resulting quotient is normalized to obtain the relative percentage of remaining target protein after protein degrader treatment.
(§6) Target protein degradation rate (%)=1−target protein remaining (%).

[2] = biological target: T2, IKZF2 (Homo sapiens, UniProt Q96SW2+Q9UKS7); test: Western blot degradation of IKZF2 in hPBMCs (24 h)
T2 construct: The supernatant was aspirated as the extracted total cell protein; endogenous in cells; host or cells: human peripheral blood mononuclear cells (hPBMCs)
T2 sequence (Q9UKS7 whole entry): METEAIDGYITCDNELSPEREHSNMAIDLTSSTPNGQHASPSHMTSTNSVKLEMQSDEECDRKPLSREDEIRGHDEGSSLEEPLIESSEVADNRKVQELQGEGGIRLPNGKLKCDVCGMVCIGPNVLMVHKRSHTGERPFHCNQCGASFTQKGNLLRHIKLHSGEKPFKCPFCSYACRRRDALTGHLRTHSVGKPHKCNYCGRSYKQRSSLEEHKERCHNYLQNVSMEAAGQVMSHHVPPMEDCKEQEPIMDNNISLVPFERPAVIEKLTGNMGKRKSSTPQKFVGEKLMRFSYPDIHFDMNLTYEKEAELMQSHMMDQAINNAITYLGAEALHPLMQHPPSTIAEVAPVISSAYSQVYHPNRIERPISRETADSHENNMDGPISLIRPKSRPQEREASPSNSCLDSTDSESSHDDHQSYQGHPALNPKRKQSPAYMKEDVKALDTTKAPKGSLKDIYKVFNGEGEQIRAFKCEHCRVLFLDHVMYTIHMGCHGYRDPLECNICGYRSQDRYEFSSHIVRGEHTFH
T2 sequence (Q96SW2 whole entry): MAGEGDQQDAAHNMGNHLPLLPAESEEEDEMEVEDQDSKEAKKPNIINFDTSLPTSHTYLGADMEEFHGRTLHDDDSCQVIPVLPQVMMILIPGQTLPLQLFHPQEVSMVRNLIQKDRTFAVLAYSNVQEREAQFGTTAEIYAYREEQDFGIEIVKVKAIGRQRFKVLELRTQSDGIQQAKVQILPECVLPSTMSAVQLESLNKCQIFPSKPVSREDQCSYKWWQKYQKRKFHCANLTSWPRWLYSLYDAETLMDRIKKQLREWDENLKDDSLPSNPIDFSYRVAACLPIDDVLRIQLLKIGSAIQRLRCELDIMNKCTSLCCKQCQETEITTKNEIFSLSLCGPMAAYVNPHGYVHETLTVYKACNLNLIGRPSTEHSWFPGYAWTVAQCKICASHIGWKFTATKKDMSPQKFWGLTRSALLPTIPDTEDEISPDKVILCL
T2 sequence (Q16531 whole entry partner): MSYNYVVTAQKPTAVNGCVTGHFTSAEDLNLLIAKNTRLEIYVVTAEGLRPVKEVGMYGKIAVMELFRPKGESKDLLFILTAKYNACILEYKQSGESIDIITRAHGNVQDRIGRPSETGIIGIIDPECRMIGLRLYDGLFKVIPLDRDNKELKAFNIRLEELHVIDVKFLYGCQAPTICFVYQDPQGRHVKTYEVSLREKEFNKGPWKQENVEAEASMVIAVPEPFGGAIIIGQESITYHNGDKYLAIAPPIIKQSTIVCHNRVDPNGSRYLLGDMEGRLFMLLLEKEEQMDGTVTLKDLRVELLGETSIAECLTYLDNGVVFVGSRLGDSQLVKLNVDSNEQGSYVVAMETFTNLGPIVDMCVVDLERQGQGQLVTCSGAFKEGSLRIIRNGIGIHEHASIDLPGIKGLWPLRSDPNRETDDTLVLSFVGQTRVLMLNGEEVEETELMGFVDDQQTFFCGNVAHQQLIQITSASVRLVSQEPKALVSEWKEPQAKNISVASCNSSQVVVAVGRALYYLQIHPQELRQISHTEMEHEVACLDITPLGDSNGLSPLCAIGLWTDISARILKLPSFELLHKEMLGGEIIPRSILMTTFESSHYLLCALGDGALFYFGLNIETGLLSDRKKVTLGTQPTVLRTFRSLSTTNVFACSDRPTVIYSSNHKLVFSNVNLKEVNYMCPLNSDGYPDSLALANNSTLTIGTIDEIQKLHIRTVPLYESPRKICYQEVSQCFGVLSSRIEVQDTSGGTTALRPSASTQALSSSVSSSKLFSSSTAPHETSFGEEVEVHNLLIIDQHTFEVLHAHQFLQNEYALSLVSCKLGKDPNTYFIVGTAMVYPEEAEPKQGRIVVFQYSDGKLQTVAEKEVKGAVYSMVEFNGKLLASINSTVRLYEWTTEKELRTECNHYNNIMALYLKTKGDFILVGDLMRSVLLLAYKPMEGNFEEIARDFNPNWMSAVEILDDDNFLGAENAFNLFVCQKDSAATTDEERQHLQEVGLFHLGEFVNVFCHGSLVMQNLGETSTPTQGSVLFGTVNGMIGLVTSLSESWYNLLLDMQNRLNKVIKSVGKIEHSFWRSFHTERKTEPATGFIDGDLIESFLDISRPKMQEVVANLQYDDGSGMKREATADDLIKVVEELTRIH
Method: as §1, §2, §3, §4, §5, §6

[3] = biological target: T3, CK1α (Homo sapiens, UniProt P48729+Q96SW2); test: Western blot degradation of CK1α in hPBMCs (24 h)
T3 construct: The supernatant was aspirated as the extracted total cell protein; endogenous in cells; host or cells: human peripheral blood mononuclear cells (hPBMCs)
T3 sequence (P48729 whole entry): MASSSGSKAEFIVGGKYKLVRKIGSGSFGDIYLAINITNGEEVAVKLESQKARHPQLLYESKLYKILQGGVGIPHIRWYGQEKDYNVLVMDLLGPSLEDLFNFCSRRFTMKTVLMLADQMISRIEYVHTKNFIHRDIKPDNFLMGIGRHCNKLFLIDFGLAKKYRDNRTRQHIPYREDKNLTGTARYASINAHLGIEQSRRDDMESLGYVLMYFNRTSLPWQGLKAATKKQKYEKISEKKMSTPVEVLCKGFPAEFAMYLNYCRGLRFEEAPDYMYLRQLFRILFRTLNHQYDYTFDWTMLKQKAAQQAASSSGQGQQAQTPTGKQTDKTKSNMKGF
T3 sequence (Q96SW2 whole entry): as the sequence (Q96SW2 whole entry) above
T3 sequence (Q16531 whole entry partner): as the sequence (Q16531 whole entry partner) above
Method: as §1, §2, §3, §4, §5, §6

[4] = biological target: T4, IKZF1 (Homo sapiens, UniProt Q13422+Q96SW2); test: Western blot degradation of IKZF1 in hPBMCs (24 h)
T4 construct: The supernatant was aspirated as the extracted total cell protein; endogenous in cells; host or cells: human peripheral blood mononuclear cells (hPBMCs)
T4 sequence (Q13422 whole entry): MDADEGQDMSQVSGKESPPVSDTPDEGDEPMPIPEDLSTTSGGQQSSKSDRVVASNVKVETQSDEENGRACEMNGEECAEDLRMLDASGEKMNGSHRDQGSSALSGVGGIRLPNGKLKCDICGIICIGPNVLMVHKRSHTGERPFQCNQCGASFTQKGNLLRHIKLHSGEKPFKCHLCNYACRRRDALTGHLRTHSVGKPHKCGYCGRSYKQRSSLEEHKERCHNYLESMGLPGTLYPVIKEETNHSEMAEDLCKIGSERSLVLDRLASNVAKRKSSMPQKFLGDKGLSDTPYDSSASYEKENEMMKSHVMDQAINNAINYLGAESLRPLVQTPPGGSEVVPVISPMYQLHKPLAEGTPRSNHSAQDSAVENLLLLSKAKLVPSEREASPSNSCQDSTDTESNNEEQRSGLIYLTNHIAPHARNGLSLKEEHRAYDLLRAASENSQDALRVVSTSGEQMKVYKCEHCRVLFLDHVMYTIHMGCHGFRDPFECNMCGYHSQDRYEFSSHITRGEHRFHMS
T4 sequence (Q96SW2 whole entry): as the sequence (Q96SW2 whole entry) above
T4 sequence (Q16531 whole entry partner): as the sequence (Q16531 whole entry partner) above
Method: as §1, §2, §3, §4, §5, §6

[5] = biological target: T5, GSPT1 (Homo sapiens, UniProt P15170+Q96SW2); test: Western blot degradation of GSPT1 in hPBMCs (24 h)
T5 construct: The supernatant was aspirated as the extracted total cell protein; endogenous in cells; host or cells: human peripheral blood mononuclear cells (hPBMCs)
Method: as §1, §2, §3, §4, §5, §6

[6] = biological target: T6, WEE1 (Homo sapiens, UniProt P30291+Q96SW2); test: Western blot degradation of WEE1 in hPBMCs (24 h)
T6 construct: The supernatant was aspirated as the extracted total cell protein; endogenous in cells; host or cells: human peripheral blood mononuclear cells (hPBMCs)
T6 sequence (P30291 whole entry): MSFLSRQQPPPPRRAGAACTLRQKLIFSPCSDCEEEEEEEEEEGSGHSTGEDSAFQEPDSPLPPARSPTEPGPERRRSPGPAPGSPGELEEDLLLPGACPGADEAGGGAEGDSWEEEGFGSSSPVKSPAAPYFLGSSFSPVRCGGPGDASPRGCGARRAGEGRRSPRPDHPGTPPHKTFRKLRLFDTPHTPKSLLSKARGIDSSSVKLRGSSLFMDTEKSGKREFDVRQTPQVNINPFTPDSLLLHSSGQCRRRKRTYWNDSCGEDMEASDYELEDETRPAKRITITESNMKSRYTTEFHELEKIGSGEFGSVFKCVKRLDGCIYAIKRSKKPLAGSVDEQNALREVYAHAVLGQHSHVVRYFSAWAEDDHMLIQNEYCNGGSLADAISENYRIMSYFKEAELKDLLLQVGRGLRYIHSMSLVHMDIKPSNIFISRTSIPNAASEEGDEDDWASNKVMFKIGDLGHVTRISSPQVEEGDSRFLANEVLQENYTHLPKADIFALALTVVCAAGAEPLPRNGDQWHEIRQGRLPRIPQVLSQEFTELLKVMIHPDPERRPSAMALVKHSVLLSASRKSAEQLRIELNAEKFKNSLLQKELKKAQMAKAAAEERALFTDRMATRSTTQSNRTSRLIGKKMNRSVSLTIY
T6 sequence (Q96SW2 whole entry): as the sequence (Q96SW2 whole entry) above
T6 sequence (Q16531 whole entry partner): as the sequence (Q16531 whole entry partner) above
Method: as §1, §2, §3, §4, §5, §6

T1 sequence (Q9UKT9 whole entry): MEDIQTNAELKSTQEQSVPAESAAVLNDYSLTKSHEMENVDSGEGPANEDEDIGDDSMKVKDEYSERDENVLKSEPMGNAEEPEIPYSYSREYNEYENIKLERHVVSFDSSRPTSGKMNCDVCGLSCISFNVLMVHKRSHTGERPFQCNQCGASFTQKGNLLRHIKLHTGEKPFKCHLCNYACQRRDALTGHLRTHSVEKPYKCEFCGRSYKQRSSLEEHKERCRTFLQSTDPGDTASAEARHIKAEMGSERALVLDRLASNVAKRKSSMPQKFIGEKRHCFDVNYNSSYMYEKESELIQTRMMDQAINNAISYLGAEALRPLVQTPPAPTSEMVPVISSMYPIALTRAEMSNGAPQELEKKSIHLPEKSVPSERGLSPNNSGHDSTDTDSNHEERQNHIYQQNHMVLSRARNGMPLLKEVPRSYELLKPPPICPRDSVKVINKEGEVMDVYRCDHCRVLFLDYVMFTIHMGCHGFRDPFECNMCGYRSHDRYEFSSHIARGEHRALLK
T1 sequence (Q96SW2 whole entry): as the sequence (Q96SW2 whole entry) above
T1 sequence (Q16531 whole entry partner): as the sequence (Q16531 whole entry partner) above

SMILES: O=C1CCN(N2Cc3cc(CN4CCN(c5nccc(F)c5F)CC4)ccc3C2=O)C(=O)N1 [GT-05357, 1-(5-((4-(3,4-difluoropyridin-2-yl)piperazin-1-yl)methyl)-1-oxoisoindolin-2-yl)dihydropyrimidine-2,4(1H,3H)-dione]
- IKZF3 substrate protein remaining % [1]: B (80%< substrate protein remaining % ≤100%)
- IKZF2 substrate protein remaining % [2]: B (80%< substrate protein remaining % ≤100%)
- CK1α substrate protein remaining % [3]: B (80%< substrate protein remaining % ≤100%)
- IKZF1 substrate protein remaining % [4]: B (80%< substrate protein remaining % ≤100%)

SMILES: O=C1CCN(N2Cc3cc(CN4CCN(c5ncc(C(F)(F)F)cc5Cl)CC4)ccc3C2=O)C(=O)N1 [GT-05433, 1-(5-((4-(3-chloro-5-(trifluoromethyl)pyridin-2-yl)piperazin-1-yl)methyl)-1-oxoisoindolin-2-yl)dihydropyrimidine-2,4(1H,3H)-dione]
- IKZF3 substrate protein remaining % [1]: B (80%< substrate protein remaining % ≤100%)
- GSPT1 substrate protein remaining % [5]: A (0% ≤ substrate protein remaining % ≤80%)
- CK1α substrate protein remaining % [3]: B (80%< substrate protein remaining % ≤100%)
- IKZF1 substrate protein remaining % [4]: B (80%< substrate protein remaining % ≤100%)
- WEE1 substrate protein remaining % [6]: A (0% ≤ substrate protein remaining % ≤80%)

SMILES: O=C1CCN(N2Cc3cc(CN4CCN(c5nccc(I)c5F)CC4)ccc3C2=O)C(=O)N1 [GT-05406, 1-(5-((4-(3-fluoro-4-iodopyridin-2-yl)piperazin-1-yl)methyl)-1-oxoisoindolin-2-yl)dihydropyrimidine-2,4(1H,3H)-dione]
- IKZF3 substrate protein remaining % [1]: B (80%< substrate protein remaining % ≤100%)
- GSPT1 substrate protein remaining % [5]: A (0% ≤ substrate protein remaining % ≤80%)
- CK1α substrate protein remaining % [3]: B (80%< substrate protein remaining % ≤100%)
- IKZF1 substrate protein remaining % [4]: B (80%< substrate protein remaining % ≤100%)

SMILES: O=C1CCN(N2Cc3cc(CN4CCN(c5nccc(Cl)c5Br)CC4)ccc3C2=O)C(=O)N1 [GT-05432, 1-(5-((4-(3-bromo-4-chloropyridin-2-yl)piperazin-1-yl)methyl)-1-oxoisoindolin-2-yl)dihydropyrimidine-2,4(1H,3H)-dione]
- IKZF3 substrate protein remaining % [1]: B (80%< substrate protein remaining % ≤100%)
- IKZF2 substrate protein remaining % [2]: B (80%< substrate protein remaining % ≤100%)
- CK1α substrate protein remaining % [3]: B (80%< substrate protein remaining % ≤100%)
- IKZF1 substrate protein remaining % [4]: B (80%< substrate protein remaining % ≤100%)
- WEE1 substrate protein remaining % [6]: A (0% ≤ substrate protein remaining % ≤80%)

SMILES: O=C1CCN(N2C(=O)c3ccc(CN4CCN(c5ncccc5F)CC4)cc3C2=O)C(=O)N1 [GT-05355, 2-(2,4-dioxotetrahydropyrimidin-1(2H)-yl)-5-((4-(3-fluoropyridin-2-yl)piperazin-1-yl)methyl)isoindoline-1,3-dione]
- IKZF3 substrate protein remaining % [1]: B (80%< substrate protein remaining % ≤100%)
- GSPT1 substrate protein remaining % [5]: A (0% ≤ substrate protein remaining % ≤80%)
- CK1α substrate protein remaining % [3]: B (80%< substrate protein remaining % ≤100%)
- IKZF1 substrate protein remaining % [4]: B (80%< substrate protein remaining % ≤100%)
- WEE1 substrate protein remaining % [6]: B (80%< substrate protein remaining % ≤100%)

SMILES: O=C1CCN(N2C(=O)c3ccc(CN4CCN(c5cccc(Cl)n5)CC4)cc3C2=O)C(=O)N1 [GT-05353, 5-((4-(6-chloropyridin-2-yl)piperazin-1-yl)methyl)-2-(2,4-dioxotetrahydropyrimidin-1(2H)-yl)isoindoline-1,3-dione]
- IKZF3 substrate protein remaining % [1]: B (80%< substrate protein remaining % ≤100%)
- IKZF2 substrate protein remaining % [2]: B (80%< substrate protein remaining % ≤100%)
- GSPT1 substrate protein remaining % [5]: A (0% ≤ substrate protein remaining % ≤80%)
- CK1α substrate protein remaining % [3]: B (80%< substrate protein remaining % ≤100%)
- IKZF1 substrate protein remaining % [4]: B (80%< substrate protein remaining % ≤100%)

SMILES: O=C1CCN(N2C(=O)c3ccc(CN4CCN(c5ccccn5)CC4)cc3C2=O)C(=O)N1 [GT-05351, 2-(2,4-dioxotetrahydropyrimidin-1(2H)-yl)-5-((4-(pyridin-2-yl)piperazin-1-yl)methyl)isoindoline-1,3-dione]
- IKZF3 substrate protein remaining % [1]: B (80%< substrate protein remaining % ≤100%)
- IKZF2 substrate protein remaining % [2]: A (0% ≤ substrate protein remaining % ≤80%)
- CK1α substrate protein remaining % [3]: B (80%< substrate protein remaining % ≤100%)
- IKZF1 substrate protein remaining % [4]: B (80%< substrate protein remaining % ≤100%)

SMILES: O=C1CCN(N2Cc3cc(CN4CCN(c5cccnc5)CC4)ccc3C2=O)C(=O)N1 [GT-05434, 1-(1-oxo-5-((4-(pyridin-3-yl)piperazin-1-yl)methyl)isoindolin-2-yl)dihydropyrimidine-2,4(1H,3H)-dione]
- IKZF3 substrate protein remaining % [1]: B (80%< substrate protein remaining % ≤100%)
- GSPT1 substrate protein remaining % [5]: A (0% ≤ substrate protein remaining % ≤80%)
- IKZF1 substrate protein remaining % [4]: B (80%< substrate protein remaining % ≤100%)
- WEE1 substrate protein remaining % [6]: A (0% ≤ substrate protein remaining % ≤80%)

SMILES: O=C1CCN(N2Cc3cc(CN4CCN(c5ccc(C(F)(F)F)cn5)CC4)ccc3C2=O)C(=O)N1 [GT-05176, 1-(1-oxo-5-((4-(5-(trifluoromethyl)pyridin-2-yl)piperazin-1-yl)methyl)isoindolin-2-yl)dihydropyrimidine-2,4(1H,3H)-dione]
- IKZF2 substrate protein remaining % [2]: B (80%< substrate protein remaining % ≤100%)
- CK1α substrate protein remaining % [3]: B (80%< substrate protein remaining % ≤100%)
- IKZF1 substrate protein remaining % [4]: B (80%< substrate protein remaining % ≤100%)

SMILES: O=C1CCN(N2C(=O)c3ccc(CN4CCN(c5cc(Cl)ccn5)CC4)cc3C2=O)C(=O)N1 [GT-05354, 5-((4-(4-chloropyridin-2-yl)piperazin-1-yl)methyl)-2-(2,4-dioxotetrahydropyrimidin-1(2H)-yl)isoindoline-1,3-dione]
- GSPT1 substrate protein remaining % [5]: A (0% ≤ substrate protein remaining % ≤80%)
- CK1α substrate protein remaining % [3]: B (80%< substrate protein remaining % ≤100%)
- IKZF1 substrate protein remaining % [4]: B (80%< substrate protein remaining % ≤100%)

SMILES: O=C1CCN(N2Cc3cc(CN4CCN(c5ccncc5Br)CC4)ccc3C2=O)C(=O)N1 [GT-05439, 1-(5-((4-(3-bromopyridin-4-yl)piperazin-1-yl)methyl)-1-oxoisoindolin-2-yl)dihydropyrimidine-2,4(1H,3H)-dione]
- IKZF2 substrate protein remaining % [2]: B (80%< substrate protein remaining % ≤100%)
- IKZF1 substrate protein remaining % [4]: B (80%< substrate protein remaining % ≤100%)
- WEE1 substrate protein remaining % [6]: A (0% ≤ substrate protein remaining % ≤80%)

SMILES: O=C1CCN(N2Cc3cc(CN4CCN(c5ncccc5C(F)(F)F)CC4)ccc3C2=O)C(=O)N1 [GT-05174, 1-(1-oxo-5-((4-(3-(trifluoromethyl)pyridin-2-yl)piperazin-1-yl)methyl)isoindolin-2-yl)dihydropyrimidine-2,4(1H,3H)-dione]
- IKZF3 substrate protein remaining % [1]: B (80%< substrate protein remaining % ≤100%)
- CK1α substrate protein remaining % [3]: B (80%< substrate protein remaining % ≤100%)
- IKZF1 substrate protein remaining % [4]: B (80%< substrate protein remaining % ≤100%)

SMILES: O=C1CCN(N2Cc3cc(CN4CCN(c5ncc(Cl)cc5Cl)CC4)ccc3C2=O)C(=O)N1 [GT-05356, 1-(5-((4-(3,5-dichloropyridin-2-yl)piperazin-1-yl)methyl)-1-oxoisoindolin-2-yl)dihydropyrimidine-2,4(1H,3H)-dione]
- IKZF3 substrate protein remaining % [1]: B (80%< substrate protein remaining % ≤100%)
- CK1α substrate protein remaining % [3]: B (80%< substrate protein remaining % ≤100%)
- IKZF1 substrate protein remaining % [4]: B (80%< substrate protein remaining % ≤100%)
